Experimental data reported in patent publication US10047083B2, “Dihydropyrimidinoisoquinolinones and pharmaceutical compositions thereof for the treatment of inflammatory disorders” (GALAPAGOS NV, priority 2011, dated 2018).

Columns and labels:
[1] = test system: human neutrophils; assay: Human neutrophil migration assay (embelin-induced); assay type: cell-based
[2] = molecular target: T1, GPR84 (Homo sapiens, UniProt Q9NQS5); settings: Wang et al. (2006); WO 2007/027661A2; cited from earlier work
T1 construct: expressed in transfected cells; membranes used
T1 sequence (Q9NQS5 whole entry): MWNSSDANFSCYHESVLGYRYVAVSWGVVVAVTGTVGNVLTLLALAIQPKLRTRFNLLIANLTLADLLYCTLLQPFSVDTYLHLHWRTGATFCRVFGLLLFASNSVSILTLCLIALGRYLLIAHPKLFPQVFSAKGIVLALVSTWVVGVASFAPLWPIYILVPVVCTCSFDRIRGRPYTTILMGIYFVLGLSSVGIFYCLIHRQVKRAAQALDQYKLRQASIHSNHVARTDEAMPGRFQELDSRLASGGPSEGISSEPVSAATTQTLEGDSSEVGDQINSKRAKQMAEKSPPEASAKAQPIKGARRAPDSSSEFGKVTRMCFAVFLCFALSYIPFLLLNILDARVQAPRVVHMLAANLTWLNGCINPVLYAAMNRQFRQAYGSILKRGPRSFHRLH

[3] = molecular target: T1, GPR84; assay: GTPγS binding assay (GPR84); assay type: biochemical; settings: membranes from stable cell line over expressing GPR84; 3,3′ di indolylmethane at EC80
In short: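 Membranes (20 μg/well) from a stable GPR84-overexpressing line, pre-incubated with 0.1 μM GDP for 15 min at 4° C, mixed with 0.1 nM [35S]GTPγS and WGA SpA beads in 20 mM HEPES pH 7.4, 5 mM MgCl2, 250 mM NaCl, 0.05% BSA, 75 ug/mL saponin; 90 min at room temperature, then scintillation counting.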

[4] = test system: human neutrophils; assay: Human neutrophil migration assay (embelin-induced); assay type: cell-based; settings: neutrophils from human buffy coat, 30 min compound pre-incubation, migration towards embelin at EC80 for 1 h, ATPlite readout, read-out: human neutrophil migration inhibition (Neutrophils)
Procedure: 2. Cellular Assays 2.1. Human Neutrophil Migration Assay
The effect of agonists or antagonists for GPR84 can therefore be assayed in a neutrophil migration test. In the neutrophil migration assay, neutrophils, freshly isolated from buffy coats from human volunteers, are treated with a compound for 30 minutes. Subsequently, the neutrophils are transferred to the upper wells of a Corning HTS transwell 96 permeable support system, of which the lower wells are filled with a embelin solution at EC80 (concentration which gives 80% of the activity of GPR84). After 1 h of incubation, migration of the neutrophils towards embelin in the lower compartment can be quantified by measuring the ATP-content of the lower wells using the ATPlite luminescence ATP detection assay system (Perkin Elmer, Cat. No.: 436110).
A human buffy coat is diluted with an equal volume of ice cold DPBS. 20 mL of the diluted buffy coat is gently mixed with 4 mL of ACD buffer (140 mM citric acid, 200 mM sodium citrate and 220 mM dextrose). Then, 12 mL of the 6% dextran/0.9% NaCl solution (15 g dextran T2000 and 2.25 g NaCl dissolved in 250 mL H2O) is added to the mixture and the samples are inverted gently up to 20 times. The total volume was transferred to a new recipient and incubated at room temperature for 1 h for complete separation of the two phases to occur. The yellowish supernatant is then transferred to a clean centrifugation tube and centrifuged for 12 minutes at 1300 rpm and 4° C. After centrifugation, the supernatant is discarded and the remaining cell pellet is rapidly resuspended in 12 mL of ice-cold H2O for red blood cell lysis to occur. After 20 seconds, 4 mL of ice-cold 0.6 M KCl is added. Samples are mixed carefully and centrifuged for 6 minutes at 1300 rpm, 4° C. The supernatant is discarded and the red blood cell lysis procedure is repeated one more time. Subsequently, the cell pellet is resuspended in 4 mL of DPBS and layered over 5 mL of Lymphoprep (Nycomed Pharma, Cat. No.: 1114545) in a 15 mL centrifuge tube. After centrifugation for 12 min at 1300 rpm, 4° C., the supernatant is removed and the cell pellet, containing the neutrophils, is resuspended in 25 mL chemotaxis buffer (RPMI 1640 medium, supplemented with 10 mM HEPES; freshly made for each experiment)
A cell suspension of 8.9×10^6 cells per milliliter is prepared. 20 μL of compound solution in chemotaxis buffer is added to 180 μL cell suspension. The mixture is incubated at 37° C. for 30 minutes with intermediate resuspension of the cells after 15 minutes. Following this, 70 μL cell suspension is transferred to the upper compartment of a Corning HTS transwell 96 permeable support system with 5.0 μm pore size polycarbonate membrane (Corning, Cat. No.: 3387). The receiver well of the transwell system is then filled with 200 μL chemotaxis buffer containing compound and chemotactic agent (embelin). After incubation at 37° C. in 5% CO2 for 1 h, the upper plate of the transwell system is removed and the cell suspension in the receiver plate is transferred to a 96-well V-bottom plate. 50 μL of DPBS is added to the receiver plate to prevent remaining cells from drying out. The V-bottom plate is centrifuged for 6 minutes at 1500 rpm. The supernatant is removed and the cells are resuspended in 50 μL DPBS. The cells are then transferred back to the receiver plate of the transwell system. After this, 100 μL ATPlite solution (Perkin Elmer, Cat. No: 436110) was added to the cells. The plate is incubated for 10 minutes in the dark, while shaking. […] of cell lysate is then transferred to a white 96-well plate and luminescence is measured. The detected luminescent signal is considered as linearely related to the number of cells having migrated from the upper well to the receiver well.

[5] = test system: RAW264.7 murine macrophage-like cells; settings: RAW264.7 cells stimulated with LPS; cited from earlier work

Row | SMILES | induction of neutrophil chemotaxis by GPR84 agonists [1] | GPR84 agonist activity [2] | IC50 [3] [nM] | IC50 [4] [nM] | secretion of interleukin-12 p40 subunit (IL-12 p40) [5]
1 | c1ccc2c(Cc3c[nH]c4ccccc34)c[nH]c2c1 [3,3′ di indolylmethane] | induce neutrophil chemo taxis |  |  |  | 
2 | c1ccc2c(Cc3c[nH]c4ccccc34)c[nH]c2c1 [3,3′ di-indolylmethane] |  | some GPR84 agonist activity |  |  | 
3 | O=c1nc(OCC2COCCO2)cc2n1CCc1cc(CCC(O)c3cccnc3)ccc1-2 (stereo not drawn) [Compound 116, 2-([1,4]dioxan-2-ylmethoxy)-9-(3-hydroxy-3-pyridin-3-yl-propyl)-6,7-dihydro-pyrimido[6,1-a]isoquinolin-4-one] |  |  | 101 to 500 | 0.01 to 100 | 
4 | CCCCCc1ccc2c(c1)CCn1c-2cc(OC[C@H]2COCCO2)nc1=O [Compound 121, 2-((R)-1-[1,4]dioxan-2-ylmethoxy)-9-pentyl-6,7-dihydro-pyrimido[6,1-a]isoquinolin-4-one] |  |  | 0.01 to 100 | 101 to 500 | 
5 | O=c1nc(OC[C@@H]2COCCO2)cc2n1CCc1cc(CCC3CC3)ccc1-2 [Compound 123, 9-(2-cyclopropyl-ethyl)-2-((S)-1-[1,4]dioxan-2-ylmethoxy)-6,7-dihydropyrimido[6,1-a]isoquinolin-4-one] |  |  | 0.01 to 100 | 0.01 to 100 | 
6 | CCC(C)(C)CNc1ccc2c(c1)CCn1c-2cc(OC[C@@H]2COCCO2)nc1=O [Compound 126, 9-(2,2-dimethyl-butylamino)-2-((S)-1-[1,4]dioxan-2-ylmethoxy)-6,7-dihydro-pyrimido[6,1-a]isoquinolin-4-one] |  |  | 0.01 to 100 | 0.01 to 100 | 
7 | COCCOCC#Cc1ccc2c(c1)CCn1c-2cc(OC[C@@H]2COCCO2)nc1=O [Compound 133, 2-((S)-1-[1,4]dioxan-2-ylmethoxy)-9-[3-(2-methoxy-ethoxy)-prop-1-ynyl]-6,7-dihydro-pyrimido[6,1-a]isoquinolin-4-one] |  |  | 101 to 500 | 0.01 to 100 | 
8 | O=c1nc(OC[C@@H]2COCCO2)cc2n1CCc1cc(OCC3CCCCO3)ccc1-2 (stereo partly drawn) [Compound 139, 2-((S)-1-[1,4]dioxan-2-ylmethoxy)-9-(tetrahydro-pyran-2-ylmethoxy)-6,7-dihydro-pyrimido[6,1-a]isoquinolin-4-one] |  |  | 0.01 to 100 | 0.01 to 100 | 
9 | CC(O)CCc1ccc2c(c1)CCn1c-2cc(OC[C@@H]2COCCO2)nc1=O (stereo partly drawn) [Compound 140, 2-((S)-1-[1,4]dioxan-2-ylmethoxy)-9-(3-hydroxy-butyl)-6,7-dihydro-pyrimido[6,1-a]isoquinolin-4-one] |  |  | 101 to 500 | 0.01 to 100 | 
10 | O=c1nc(OC[C@@H]2COCCO2)cc2n1CCc1cc(COCC3CCCC3)ccc1-2 [Compound 147, 9-cyclopentylmethoxymethyl-2-((S)-1-[1,4]dioxan-2-ylmethoxy)-6,7-dihydro-pyrimido[6,1-a]isoquinolin-4-one] |  |  | 0.01 to 100 | 0.01 to 100 | 
11 | CC(O)CCCc1ccc2c(c1)CCn1c-2cc(OC[C@@H]2COCCO2)nc1=O (stereo partly drawn) [Compound 150, 2-((S)-1-[1,4]dioxan-2-ylmethoxy)-9-(4-hydroxy-pentyl)-6,7-dihydro-pyrimido[6,1-a]isoquinolin-4-one] |  |  | 101 to 500 | 0.01 to 100 | 
12 | CC(C)(C)COc1ccc2c(c1)CCn1c-2cc(OC[C@@H]2COCCO2)nc1=O [Compound 158, 9-(2,2-dimethyl-propoxy)-2-((S)-1-[1,4]dioxan-2-ylmethoxy)-6,7-dihydro-pyrimido[6,1-a]isoquinolin-4-one] |  |  | 101 to 500 | 0.01 to 100 | 
13 | O=c1nc(OC[C@@H]2COCCO2)cc2n1CCc1cc(OCC3CCOCC3)ccc1-2 [Compound 159, 2-((S)-1-[1,4]dioxan-2-ylmethoxy)-9-(tetrahydro-pyran-4-ylmethoxy)-6,7-dihydro-pyrimido[6,1-a]isoquinolin-4-one] |  |  | 0.01 to 100 | 0.01 to 100 | 
14 | CC(C)(O)CCCc1ccc2c(c1)CCn1c-2cc(OC[C@@H]2COCCO2)nc1=O [Compound 160, 2-((S)-1-[1,4]dioxan-2-ylmethoxy)-9-(4-hydroxy-4-methyl-pentyl)-6,7-dihydro-pyrimido[6,1-a]isoquinolin-4-one] |  |  | 101 to 500 | 101 to 500 | 
15 | O=c1nc(OC[C@@H]2COCCO2)cc2n1CCc1cc(COCC3CCOCC3)ccc1-2 [Compound 161, 2-((S)-1-[1,4]dioxan-2-ylmethoxy)-9-(tetrahydro-pyran-4-ylmethoxymethyl)-6,7-dihydro-pyrimido[6,1-a]isoquinolin-4-one] |  |  | 101 to 500 | 0.01 to 100 | 
16 | COCCCc1ccc2c(c1)CCn1c-2cc(OC[C@H]2COCCO2)nc1=O [Compound 168, 2-((R)-1-[1,4]Dioxan-2-ylmethoxy)-9-(3-methoxy-propyl)-6,7-dihydro-pyrimido[6,1-a]isoquinolin-4-one] |  |  | 101 to 500 | 0.01 to 100 | 
17 | O=c1nc(OC[C@H]2COCCO2)cc2n1CCc1cc(CCC3(O)CCCC3)ccc1-2 [Compound 169, 2-((R)-1-[1,4]Dioxan-2-ylmethoxy)-9-[2-(1-hydroxy-cyclopentyl)-ethyl]-6,7-dihydro-pyrimido[6,1-a]isoquinolin-4-one] |  |  | 101 to 500 | 0.01 to 100 | 
18 | CCCOCCOc1ccc2c(c1)CCn1c-2cc(OC[C@@H]2COCCO2)nc1=O [Compound 170, 2-((S)-1-[1,4]Dioxan-2-ylmethoxy)-9-(2-propoxy-ethoxy)-6,7-dihydro-pyrimido[6,1-a]isoquinolin-4-one] |  |  | 0.01 to 100 | 0.01 to 100 | 
19 | CC(C)OCCOc1ccc2c(c1)CCn1c-2cc(OC[C@@H]2COCCO2)nc1=O [Compound 171, 2-((S)-1-[1,4]Dioxan-2-ylmethoxy)-9-(2-isopropoxy-ethoxy)-6,7-dihydro-pyrimido[6,1-a]isoquinolin-4-one] |  |  | 0.01 to 100 | 0.01 to 100 | 
20 | COCCCCc1ccc2c(c1)CCn1c-2cc(OC[C@@H]2COCCO2)nc1=O [Compound 174, 2-((S)-1-[1,4]Dioxan-2-ylmethoxy)-9-(4-methoxy-butyl)-6,7-dihydro-pyrimido[6,1-a]isoquinolin-4-one] |  |  | 0.01 to 100 | 0.01 to 100 | 
21 | CCCCCCCCCC(=O)O [capric acid] |  |  |  |  | dose dependently increased
22 | CCCCCCCCCCCC(=O)O [lauric acid] |  |  |  |  | dose dependently increased
23 | CCCCCCCCCC(=O)[O-].[Na+] [sodiumdecanoate] | induce neutrophil chemo taxis |  |  |  | 
24 | CCCCCCCCCCC(=O)O [undecanoic acid] |  |  |  |  | dose dependently increased
